Values of other authors, collected in patent US20240374519A1, “COMPOSITIONS FOR SUPPLEMENTING PRODUCTS WITH THERAPEUTIC AGENTS AND METHODS OF USE THEREOF” (DISRUPTION LABS, INC., priority 2021, published 2024).

For `C=C(C)[C@@H]1CCC(C)=C[C@H]1c1c(O)cc(CCCCC)cc1O` [Cannabidiol], the “log P” value is listed as over 5.
